Source: patent US9249129B2, “Morpholino substituted urea derivatives as mTOR inhibitors” (CELLZOME LIMITED, priority 2010, dated 2016)

Tests used:
Assay in all cases: kinobeads assay with mass spectrometry detection of kinases (kinase selectivity profile)
Format in all cases: binding
[1] = target: T1, kinases (kinome) (Homo sapiens, UniProt P52333); conditions: JAK3 (TK), IPI00219418
T1 construct: determined in kinobeads assays with mass spectrometry detection of kinases as described previously; endogenous in cells; host or cells: cell lysate
T1 sequence (P52333 1-1124): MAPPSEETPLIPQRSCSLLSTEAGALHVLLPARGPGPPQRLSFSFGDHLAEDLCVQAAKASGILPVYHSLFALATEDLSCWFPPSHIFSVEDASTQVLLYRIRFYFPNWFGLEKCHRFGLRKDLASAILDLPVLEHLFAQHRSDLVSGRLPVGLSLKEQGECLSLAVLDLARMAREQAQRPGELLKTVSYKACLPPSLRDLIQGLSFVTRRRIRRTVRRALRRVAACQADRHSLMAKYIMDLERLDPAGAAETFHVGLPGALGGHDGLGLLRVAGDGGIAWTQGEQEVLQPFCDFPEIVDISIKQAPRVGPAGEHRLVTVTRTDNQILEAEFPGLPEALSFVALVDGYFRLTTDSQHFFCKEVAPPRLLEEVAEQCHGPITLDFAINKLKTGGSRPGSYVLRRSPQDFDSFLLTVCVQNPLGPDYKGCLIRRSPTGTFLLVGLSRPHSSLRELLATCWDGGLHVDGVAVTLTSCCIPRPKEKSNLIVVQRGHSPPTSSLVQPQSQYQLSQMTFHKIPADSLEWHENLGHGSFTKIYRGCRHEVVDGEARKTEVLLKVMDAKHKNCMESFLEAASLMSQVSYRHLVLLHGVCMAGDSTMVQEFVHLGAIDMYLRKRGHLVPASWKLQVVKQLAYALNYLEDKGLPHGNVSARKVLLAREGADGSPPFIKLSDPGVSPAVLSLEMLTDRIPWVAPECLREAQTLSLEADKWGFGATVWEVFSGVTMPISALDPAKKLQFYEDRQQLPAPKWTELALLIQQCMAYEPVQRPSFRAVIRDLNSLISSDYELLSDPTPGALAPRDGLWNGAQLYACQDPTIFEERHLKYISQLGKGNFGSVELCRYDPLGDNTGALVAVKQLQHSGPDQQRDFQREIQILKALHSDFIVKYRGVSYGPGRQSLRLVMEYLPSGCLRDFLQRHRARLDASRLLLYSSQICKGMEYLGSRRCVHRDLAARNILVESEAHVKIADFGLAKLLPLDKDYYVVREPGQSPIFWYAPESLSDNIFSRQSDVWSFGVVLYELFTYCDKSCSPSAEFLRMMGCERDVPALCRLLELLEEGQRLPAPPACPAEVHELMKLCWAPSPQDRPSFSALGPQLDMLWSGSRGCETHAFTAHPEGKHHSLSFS
Description: (§1) The protein kinase complement of the human genome (the kinome) was described previously (Manning et al., 2002. Science 298(5600):1912-1934). Sequence accession numbers are defined by the International Protein Index (IPI) (Kersey et al., 2004. Proteomics 4(7):1985-1988).

[2] = target: T2, kinases (kinome) (Homo sapiens, UniProt Q13131); conditions: AMPKa1 (CAMK), IPI00410287
T2 construct: determined in kinobeads assays with mass spectrometry detection of kinases as described previously; endogenous in cells; host or cells: cell lysate
T2 sequence (Q13131 whole entry): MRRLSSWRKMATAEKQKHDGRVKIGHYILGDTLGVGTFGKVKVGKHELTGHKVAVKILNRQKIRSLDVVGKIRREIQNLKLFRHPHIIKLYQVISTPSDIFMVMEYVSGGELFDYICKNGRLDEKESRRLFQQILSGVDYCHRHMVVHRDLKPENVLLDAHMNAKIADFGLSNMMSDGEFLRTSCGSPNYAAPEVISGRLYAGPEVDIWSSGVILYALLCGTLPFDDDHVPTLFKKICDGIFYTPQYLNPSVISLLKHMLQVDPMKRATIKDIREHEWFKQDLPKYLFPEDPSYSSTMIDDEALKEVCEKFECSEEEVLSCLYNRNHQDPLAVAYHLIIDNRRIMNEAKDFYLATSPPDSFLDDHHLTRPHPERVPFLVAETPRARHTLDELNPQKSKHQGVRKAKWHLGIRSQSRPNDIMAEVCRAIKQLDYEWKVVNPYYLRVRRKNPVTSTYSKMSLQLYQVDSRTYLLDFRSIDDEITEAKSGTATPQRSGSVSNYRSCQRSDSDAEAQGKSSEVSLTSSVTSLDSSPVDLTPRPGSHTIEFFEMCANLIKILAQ
Description: as §1

[3] = target: T3, kinases (kinome) (Homo sapiens, UniProt Q8NEB9); conditions: PIK3C3 (Lipid Kinase), IPI00873758
T3 construct: determined in kinobeads assays with mass spectrometry detection of kinases as described previously; endogenous in cells; host or cells: cell lysate
T3 sequence (Q8NEB9 whole entry): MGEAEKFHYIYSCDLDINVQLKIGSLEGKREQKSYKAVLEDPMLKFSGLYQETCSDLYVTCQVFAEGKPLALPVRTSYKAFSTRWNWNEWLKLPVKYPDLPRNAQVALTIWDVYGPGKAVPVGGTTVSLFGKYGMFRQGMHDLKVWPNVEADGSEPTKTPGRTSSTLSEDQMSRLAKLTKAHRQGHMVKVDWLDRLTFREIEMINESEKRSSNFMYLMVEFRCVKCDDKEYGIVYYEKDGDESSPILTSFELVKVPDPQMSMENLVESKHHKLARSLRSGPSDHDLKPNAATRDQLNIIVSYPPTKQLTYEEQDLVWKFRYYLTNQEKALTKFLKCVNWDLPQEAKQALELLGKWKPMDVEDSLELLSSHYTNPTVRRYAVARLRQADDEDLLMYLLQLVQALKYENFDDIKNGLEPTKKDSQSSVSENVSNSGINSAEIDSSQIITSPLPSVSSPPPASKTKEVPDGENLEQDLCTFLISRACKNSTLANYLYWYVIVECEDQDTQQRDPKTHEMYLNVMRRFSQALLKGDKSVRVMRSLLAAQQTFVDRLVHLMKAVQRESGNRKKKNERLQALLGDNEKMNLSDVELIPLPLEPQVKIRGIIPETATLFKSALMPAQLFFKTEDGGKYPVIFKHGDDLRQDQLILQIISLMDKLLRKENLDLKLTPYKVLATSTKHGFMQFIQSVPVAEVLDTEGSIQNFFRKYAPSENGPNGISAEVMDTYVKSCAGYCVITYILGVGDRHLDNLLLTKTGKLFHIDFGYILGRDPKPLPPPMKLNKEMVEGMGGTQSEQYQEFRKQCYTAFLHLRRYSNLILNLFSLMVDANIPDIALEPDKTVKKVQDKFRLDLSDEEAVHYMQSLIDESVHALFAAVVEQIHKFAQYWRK
Description: as §1

[4] = target: T4, kinases (kinome) (Homo sapiens, UniProt P49760); conditions: CLK2 (CMGC), IPI00028071
T4 construct: determined in kinobeads assays with mass spectrometry detection of kinases as described previously; endogenous in cells; host or cells: cell lysate
T4 sequence (P49760 whole entry): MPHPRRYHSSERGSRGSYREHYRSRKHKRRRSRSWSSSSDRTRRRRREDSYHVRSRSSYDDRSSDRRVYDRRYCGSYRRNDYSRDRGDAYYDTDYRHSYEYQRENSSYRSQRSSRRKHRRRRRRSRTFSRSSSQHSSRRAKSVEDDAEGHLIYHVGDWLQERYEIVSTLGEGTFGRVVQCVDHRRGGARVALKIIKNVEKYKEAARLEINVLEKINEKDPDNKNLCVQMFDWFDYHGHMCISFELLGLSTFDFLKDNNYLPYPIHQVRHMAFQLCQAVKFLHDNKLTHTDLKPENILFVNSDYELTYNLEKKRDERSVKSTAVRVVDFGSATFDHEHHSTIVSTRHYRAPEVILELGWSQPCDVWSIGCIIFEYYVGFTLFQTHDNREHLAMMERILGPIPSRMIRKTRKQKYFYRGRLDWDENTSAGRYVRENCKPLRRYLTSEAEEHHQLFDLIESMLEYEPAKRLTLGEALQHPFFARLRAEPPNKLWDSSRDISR
Description: as §1

[5] = target: T5, kinases (kinome) (Homo sapiens, UniProt Q8N5S9); conditions: CaMKK1 (Other), IPI00792960
T5 construct: determined in kinobeads assays with mass spectrometry detection of kinases as described previously; endogenous in cells; host or cells: cell lysate
T5 sequence (Q8N5S9 whole entry): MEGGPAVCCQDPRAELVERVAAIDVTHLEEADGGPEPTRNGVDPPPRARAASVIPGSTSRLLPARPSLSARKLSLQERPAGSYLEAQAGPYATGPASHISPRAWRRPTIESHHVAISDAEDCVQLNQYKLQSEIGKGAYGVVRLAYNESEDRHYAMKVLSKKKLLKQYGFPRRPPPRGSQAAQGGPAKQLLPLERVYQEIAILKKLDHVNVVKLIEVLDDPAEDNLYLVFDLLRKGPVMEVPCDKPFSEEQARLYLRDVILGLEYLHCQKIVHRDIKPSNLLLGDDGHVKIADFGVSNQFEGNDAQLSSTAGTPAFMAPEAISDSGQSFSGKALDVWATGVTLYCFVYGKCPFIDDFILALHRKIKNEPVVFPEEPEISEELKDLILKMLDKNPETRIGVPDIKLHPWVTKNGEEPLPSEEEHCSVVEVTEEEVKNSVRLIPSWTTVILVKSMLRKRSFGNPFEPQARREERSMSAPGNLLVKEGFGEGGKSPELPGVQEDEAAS
Description: as §1

[6] = target: T6, kinases (kinome) (Homo sapiens, UniProt Q13188); conditions: MST2 (STE), IPI00411984
T6 construct: determined in kinobeads assays with mass spectrometry detection of kinases as described previously; endogenous in cells; host or cells: cell lysate
T6 sequence (Q13188 1-491): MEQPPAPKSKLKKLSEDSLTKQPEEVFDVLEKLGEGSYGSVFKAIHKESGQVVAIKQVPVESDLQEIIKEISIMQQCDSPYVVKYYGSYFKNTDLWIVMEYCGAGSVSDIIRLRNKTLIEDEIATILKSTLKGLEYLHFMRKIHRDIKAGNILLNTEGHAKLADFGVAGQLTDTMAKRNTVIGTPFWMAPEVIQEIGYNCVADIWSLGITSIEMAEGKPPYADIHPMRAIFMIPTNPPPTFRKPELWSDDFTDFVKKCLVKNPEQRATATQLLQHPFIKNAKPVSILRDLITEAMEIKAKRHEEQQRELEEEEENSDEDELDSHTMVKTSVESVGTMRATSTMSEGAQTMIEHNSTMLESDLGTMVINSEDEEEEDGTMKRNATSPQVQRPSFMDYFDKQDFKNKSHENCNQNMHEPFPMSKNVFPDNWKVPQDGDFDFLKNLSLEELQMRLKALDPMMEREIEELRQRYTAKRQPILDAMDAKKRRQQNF
Description: as §1

[7] = target: T7, kinases (kinome) (Homo sapiens, UniProt Q9BYT3); conditions: STK33 (CAMK), IPI00302351
T7 construct: determined in kinobeads assays with mass spectrometry detection of kinases as described previously; endogenous in cells; host or cells: cell lysate
T7 sequence (Q9BYT3 whole entry): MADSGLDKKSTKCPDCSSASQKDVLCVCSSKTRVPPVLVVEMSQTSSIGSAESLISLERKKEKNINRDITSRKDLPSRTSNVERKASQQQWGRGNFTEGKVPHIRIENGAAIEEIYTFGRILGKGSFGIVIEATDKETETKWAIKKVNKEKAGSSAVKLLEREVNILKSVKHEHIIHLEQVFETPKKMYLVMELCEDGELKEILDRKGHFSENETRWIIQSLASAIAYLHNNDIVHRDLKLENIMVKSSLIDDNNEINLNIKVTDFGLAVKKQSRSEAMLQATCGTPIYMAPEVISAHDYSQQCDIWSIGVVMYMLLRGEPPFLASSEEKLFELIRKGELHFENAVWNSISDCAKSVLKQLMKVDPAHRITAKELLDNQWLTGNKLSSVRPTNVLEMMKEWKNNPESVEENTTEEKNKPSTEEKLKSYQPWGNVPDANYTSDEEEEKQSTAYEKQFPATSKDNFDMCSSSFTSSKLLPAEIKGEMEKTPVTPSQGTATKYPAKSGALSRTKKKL
Description: as §1

[8] = target: T8, kinases (kinome) (Homo sapiens, UniProt P16591); conditions: FER (TK), IPI00029263
T8 construct: determined in kinobeads assays with mass spectrometry detection of kinases as described previously; endogenous in cells; host or cells: cell lysate
T8 sequence (P16591 whole entry): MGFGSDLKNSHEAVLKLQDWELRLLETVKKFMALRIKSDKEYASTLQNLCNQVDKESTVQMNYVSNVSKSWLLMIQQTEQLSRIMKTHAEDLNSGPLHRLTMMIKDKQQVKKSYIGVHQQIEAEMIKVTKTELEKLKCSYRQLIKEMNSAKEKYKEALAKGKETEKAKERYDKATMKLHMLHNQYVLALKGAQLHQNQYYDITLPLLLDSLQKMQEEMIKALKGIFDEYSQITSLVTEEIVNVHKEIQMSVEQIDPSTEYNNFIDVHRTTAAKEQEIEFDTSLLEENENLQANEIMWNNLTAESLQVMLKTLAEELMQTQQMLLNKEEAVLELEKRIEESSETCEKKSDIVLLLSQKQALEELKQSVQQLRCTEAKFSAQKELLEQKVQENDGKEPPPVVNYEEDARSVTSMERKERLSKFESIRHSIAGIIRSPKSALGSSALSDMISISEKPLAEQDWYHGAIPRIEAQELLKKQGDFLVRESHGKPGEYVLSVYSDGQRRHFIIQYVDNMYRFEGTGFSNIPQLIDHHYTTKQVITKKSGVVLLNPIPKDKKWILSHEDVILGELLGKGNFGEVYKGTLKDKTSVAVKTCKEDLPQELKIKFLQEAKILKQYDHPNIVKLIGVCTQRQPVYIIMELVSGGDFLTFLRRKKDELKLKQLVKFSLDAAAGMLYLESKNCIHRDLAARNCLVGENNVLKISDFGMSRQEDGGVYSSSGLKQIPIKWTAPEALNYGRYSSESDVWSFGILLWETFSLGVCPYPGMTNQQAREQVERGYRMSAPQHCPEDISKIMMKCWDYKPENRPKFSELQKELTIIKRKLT
Description: as §1

[9] = target: T9, kinases (kinome) (Homo sapiens, UniProt P37173); conditions: TGFbR2 (TKL), IPI00164934
T9 construct: determined in kinobeads assays with mass spectrometry detection of kinases as described previously; endogenous in cells; host or cells: cell lysate
T9 sequence (P37173 23-567): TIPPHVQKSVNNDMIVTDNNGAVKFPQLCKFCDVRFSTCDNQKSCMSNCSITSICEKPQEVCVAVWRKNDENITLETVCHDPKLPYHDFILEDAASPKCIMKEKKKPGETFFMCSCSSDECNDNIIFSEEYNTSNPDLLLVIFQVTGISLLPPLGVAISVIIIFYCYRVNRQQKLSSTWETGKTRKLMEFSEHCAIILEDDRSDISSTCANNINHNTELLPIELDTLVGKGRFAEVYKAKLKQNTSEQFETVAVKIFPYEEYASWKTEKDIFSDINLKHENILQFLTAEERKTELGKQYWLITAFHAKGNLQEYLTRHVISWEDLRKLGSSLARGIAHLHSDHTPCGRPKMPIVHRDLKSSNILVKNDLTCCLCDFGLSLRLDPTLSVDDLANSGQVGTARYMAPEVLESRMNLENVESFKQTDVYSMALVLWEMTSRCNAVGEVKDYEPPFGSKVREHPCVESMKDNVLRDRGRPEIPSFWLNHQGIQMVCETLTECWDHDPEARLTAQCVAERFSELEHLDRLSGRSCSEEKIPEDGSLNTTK
Description: as §1

[10] = target: T10, kinases (kinome) (Homo sapiens, UniProt Q16566); conditions: CaMK4 (CAMK), IPI00430411
T10 construct: determined in kinobeads assays with mass spectrometry detection of kinases as described previously; endogenous in cells; host or cells: cell lysate
T10 sequence (Q16566 1-473): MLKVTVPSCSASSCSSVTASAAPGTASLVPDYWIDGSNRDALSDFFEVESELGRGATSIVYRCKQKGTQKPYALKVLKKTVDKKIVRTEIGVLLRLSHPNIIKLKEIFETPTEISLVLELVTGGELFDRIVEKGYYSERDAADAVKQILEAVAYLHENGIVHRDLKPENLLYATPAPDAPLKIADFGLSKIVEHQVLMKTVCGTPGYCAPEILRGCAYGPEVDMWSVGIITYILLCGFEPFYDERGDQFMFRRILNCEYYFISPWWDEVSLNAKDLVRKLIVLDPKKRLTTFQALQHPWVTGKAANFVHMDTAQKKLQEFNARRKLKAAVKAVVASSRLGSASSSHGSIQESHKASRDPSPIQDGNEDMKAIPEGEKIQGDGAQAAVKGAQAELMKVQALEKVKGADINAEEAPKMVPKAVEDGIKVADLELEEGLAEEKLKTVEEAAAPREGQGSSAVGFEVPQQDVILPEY
Description: as §1

[11] = target: T11, kinases (kinome) (Homo sapiens, UniProt Q15759); conditions: p38b (CMGC), IPI00019473
T11 construct: determined in kinobeads assays with mass spectrometry detection of kinases as described previously; endogenous in cells; host or cells: cell lysate
T11 sequence (Q15759 whole entry): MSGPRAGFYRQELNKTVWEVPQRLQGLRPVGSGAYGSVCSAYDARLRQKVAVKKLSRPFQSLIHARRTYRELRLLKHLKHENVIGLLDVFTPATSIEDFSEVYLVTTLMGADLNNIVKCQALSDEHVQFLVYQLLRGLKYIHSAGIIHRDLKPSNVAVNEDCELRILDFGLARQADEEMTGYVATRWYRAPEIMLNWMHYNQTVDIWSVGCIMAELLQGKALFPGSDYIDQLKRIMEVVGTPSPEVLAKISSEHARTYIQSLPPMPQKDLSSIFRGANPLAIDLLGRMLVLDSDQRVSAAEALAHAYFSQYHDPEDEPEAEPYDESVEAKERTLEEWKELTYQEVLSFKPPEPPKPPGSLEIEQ
Description: as §1

Measured: IC50

C[C@H]1COCCN1c1nc(-c2ccc(NC(=O)NC3CC3)cc2)cc(-c2cccnc2S(C)(=O)=O)n1 [Example 46, (S)-1-cyclopropyl-3-(4-(2-(3-methylmorpholino)-6-(2-(methylsulfonyl)pyridin-3-yl)pyrimidin-4-yl)phenyl)urea]
not listed: [10] | [11]
> 10 µM: all other assays above

C[C@H]1COCCN1c1nc(-c2ccc(NC(=O)NC3CC3)cc2)cc(-c2ccccc2S(C)(=O)=O)n1 [Example 4, (S)-1-cyclopropyl-3-(4-(2-(3-methylmorpholino)-6-(2-(methylsulfonyl)phenyl)pyrimidin-4-yl)phenyl)urea]
not listed: [1] | [4] | [6]
> 10 µM: all other assays above

C[C@H]1COCCN1c1nc(-c2ccc(NC(=O)N[C@H]3CCC[C@@H]3O)cc2)cc(-c2cc(F)ccc2S(C)(=O)=O)n1 [Example 76, 1-(4-(6-(5-fluoro-2-(methylsulfonyl)phenyl)-2-((S)-3-methylmorpholino)pyrimidin-4-yl)phenyl)-3-((1S,2S)-2-hydroxycyclopentyl)urea]
> 10 µM: [1] | [2] | [3] | [5] | [8] | [9]

CCNC(=O)Nc1ccc(-c2cc(-c3ccccc3C#N)nc(N3CCOC[C@@H]3C)n2)cc1 [Example 8, (S)-1-(4-(6-(2-cyanophenyl)-2-(3-methylmorpholino)pyrimidin-4-yl)phenyl)-3-ethylurea]
> 10 µM: [2] | [4] | [10] | [8]

C[C@H]1COCCN1c1cc(-c2ccccc2S(C)(=O)=O)nc(-c2ccc(NC(=O)NC3CC3)cc2)n1 [Example 6, (S)-1-cyclopropyl-3-(4-(4-(3-methylmorpholino)-6-(2-(methylsulfonyl)phenyl)pyrimidin-2-yl)phenyl)urea]
> 10 µM: [1] | [2] | [10] | [11] | [8] | [9]

C[C@H]1COCCN1c1cc(-c2ccccn2)nc(-c2ccc(NC(=O)NCCO)cc2)n1 [Example 43, (S)-1-(2-hydroxyethyl)-3-(4-(4-(3-methylmorpholino)-6-(pyridin-2-yl)pyrimidin-2-yl)phenyl)urea]
not listed: [7] | [9]
> 10 µM: all other assays above

C[C@H]1COCCN1c1nc(-c2ccc(NC(=O)NC3CC3)cc2)cc(-c2cc(F)ccc2S(C)(=O)=O)n1 [Example 40, (S)-1-cyclopropyl-3-(4-(6-(5-fluoro-2-(methylsulfonyl)phenyl)-2-(3-methylmorpholino)pyrimidin-4-yl)phenyl)urea]
not listed: [4] | [11]
> 10 µM: all other assays above
